Results reported in patent US8232267B2, “Porphyrin catalysts and methods of use thereof” (The Trustees of Princeton University, priority 2006, dated 2012).

Experiment: Stopped-flow spectrophotometric analysis of kinetics of peroxynitrite decomposition
Format: biochemical
Details: 100 mM phosphate buffer pH 7.4, 25° C.
Text: Peroxynitrite was synthesized from hydrogen peroxide and nitrous acid using an sp250i syringe pump by modification of published procedures. See, Shimanovich, R.; Groves, J. T., Mechanisms of Peroxynitrite Decomposition Catalyzed by FeTMPS, a Bioactive Sulfonated Iron Porphyrin. Archives of Biochemistry and Biophysics 2001, 387, (2), 307-317; Saha, A.; Goldstein, S.; Cabelli, D.; Czapski, G., Determination of optimal conditions for synthesis of peroxynitrite by mixing acidified hydrogen peroxide with nitrite. Free Radical Biology & Medicine 1998, 24, (4), 653-659; and Uppu, R. M.; Squadrito, G. L.; Cueto, R.; Pryor, W. A., Selecting the most appropriate synthesis of peroxynitrite. […] Peroxynitrite concentrations were determined spectrophotometrically at 302 nm (ε302=1670 L mol^−1 cm^−1). […] In this manner, the concentration of peroxynitrite was determined to be 95 mM. […] Nitrite and nitrate anions were detected and quantified by measuring the absorbance decrease (indirect UV detection) at 310 nm. […] Concentrations of hydrogen peroxide in the peroxynitrite before and after treatment with MnO2 were measured by PeroXOquant Quantitative peroxide assay kit (Pierce Biotechnology), an assay based on the oxidation of Fe^2+ to Fe^3+ by H2O2 under acidic conditions. […]

iron(III) chloride meso-tetrakis-2(N-(N-(2-methoxyethyl)acetamido)pyridyl porphyrin [Test porphyrin]
kcat: 1.4e+07 M⁻¹ s⁻¹
